Entries after “also recorded” stand apart in the source; their conditions may differ.
What was measured:
Type in all cases: cell-based
human SS red cells = test: Fluo-3 fluorescence measurement of [Ca2+]i during deoxygenation, human SS cells; settings: CO preincubation, no continued CO exposure
Description: (§1) Blood cell preparation: Human SS and AA blood was obtained under IRB-approved protocols of Children's Hospital and Beth Israel Deaconess Medical Center. After buffy coat removal and 5 washes in standard human red cell wash solution containing (in mM) 150 choline Cl, 1 MgCl, and 10 Tris-MOPS, pH 7.4, red cells were resuspended in storage solution containing (in mM) 145 KCl, 15 NaCl, and 10 HEPES, pH 7.4, then kept at 4° C. until used. Human red cells allowed to settle on coverslips were mounted on an inverted microscope in a 200 μl open chamber (WPI, Sarasota, Fla.) and superfused 15 min at room temperature by bath solution containing (in mM) 150 Na methanesulfonate, 10 Na EDTA, and 10 Na HEPES, pH 7.4.
(§2) Washed human or mouse red cells in solution containing (in mM) 140 NaCl, 5 KCl, 1 CaCl2, 1 MgCl2, 10 Na HEPES, pH 7.4 were exposed for 1 hr on a rotary platform in a 37° C. incubator to 25 ppm carbon monoxide (CO) in 5% CO2. CO-exposed cells were then subjected to patch clamp or to calcium imaging experiments within 60 min after return to room air, using the solutions indicated.
(§3) Fluorescence measurements of cytosolic [Ca^2+] ([Ca^2+]i): After removal of plasma and buffy coat by aspiration, human or mouse red cells were washed three times at room temperature and suspended in modified Hank's solution containing (in mM), 137 NaCl, 5.4 KCl, 1 CaCl2, 1 MgCl2, 0.8 NaK phosphate, 5.6 glucose, and 10 Na HEPES, pH 7.4. Dilute cell suspensions were settled on polylysine-coated coverslips forming the bottom of an open perfusion chamber (2.5 cm diameter, 1 cm depth) and washed again 3 times.
Measurement of relative changes in [Ca^2+]i by Fluo-3 fluorescence emission was previously validated in intact human (Yang et al. 2000, Blood, 95(7):2421-2425; Andrews et al. 2002, Blood, 199(9):3392-3399) and mouse red cells (Akel et al. 2007, Amer. J. Physiol., 292(5):C1759-1767). […] Fluorescence emission (proportional to [Ca^2+]i) from a 535ds20 bandpass filter was collected from all attached single cells within the arbitrarily selected visual field. […]
(§4) Fluo-3 fluorescence from attached cells on each coverslip was recorded 60 sec in room air and then for 10 min after onset of perfusion chamber flushing with humidified 100% N2. The normalized increase in Fluo-3 fluorescence in SS cells subjected to this deoxygenation procedure was indistinguishable from that observed during superfusion of cells in a closed perfusion chamber via syringe pump with bath previously bubbled for 60 min with 100% N2 (n=62 cells from 2 SS patients, not shown). The y-axis value of 0% change in Fluo-3 fluorescence intensity represented mean intensity recorded from all cells within the coverslip visual field during the 60 sec prior to deoxygenation.

[1] = tested on: deoxygenation-activated cation conductance in human SS red cells; test: On-cell patch clamp of deoxygenation-activated cation conductance, symmetric Na methanesulfonate
Description: as §1
Mouse red cells allowed to settle on coverslips were superfused 15 min with bath solution containing (in mM) either 150 mM Na methanesulfonate, 10 Na EDTA, and 10 Na HEPES, pH 7.4; or 140 NaCl, 4 KCl, 1CaCl2, 1 MgCl2, 10 Na HEPES, pH 7.4. Deoxygenation was achieved by switching superfusate to the same solution gassed ≧30 min prior to the experiment with 100% N2, and by flushing of the perfusion chamber with N2 during the deoxygenation period. The resulting bath pO2 was 18 mm Hg as measured by oxygen electrode (WPI). In the experiments of FIG. 1, deoxygenated cells were subsequently re-oxygenated by exposure to the same superfusate equilibrated with room air.
as §2
(§5) On-cell patch clamp: Borosilicate pipettes (Corning 7052) pulled with a Narishige two stage puller or a Sutter P97 puller and fire-polished to resistances of 10-20 MΩ were front-filled and then backfilled. Symmetric bath and pipette solutions for studies of seal resistance stability during reversibility tests of the deoxygenation-activated conductance in SAD mouse red cells were (in mM) 140 NaCl, 4 KCl, 1 CaCl2, 1 MgCl2, 10 Na HEPES, pH 7.4. These conditions yielded tight seals in 13% of patch attempts on SAD cells. For study of deoxygenation-induced monovalent cation permeation in the absence of bath Ca^2+ and Mg^2+ recorded in SAD and Berkeley mouse cells and in human cells, symmetric bath and pipette solutions contained (in mM) 150 Na methanesulfonate, 10 Na EDTA, and 10 Na HEPES, pH 7.4. These conditions yielded tight seals in 16% of patch attempts on SAD mouse red cells, 26% of attempts on Berkeley mouse cells, and 30% of attempts on human SS cells. For study of Ca^2+ permeation in human SS cells, bath and pipette solutions contained (in mM) 100 CaCl2, 10 Na HEPES, pH 7.4. These conditions yielded tights seals on 44% of attempts. For all conditions tested in human red cells, 70% of tight seals were sustained through the solution change accompanying deoxygenation to allow recording of current activity.
(§6) On-cell patch currents were recorded with the Axopatch 1-D amplifier (Axon Instruments/Molecular Devices, Sunnyvale, Calif.). Holding potential was −Vp=−50 mV (expressed as the negative of the pipette potential (e.g., equivalent to the intracellular potential with respect to the pipette). To determine current-voltage relationships (I-V curves) in Fetchex or Clampex (PCLAMP, Axon Instruments), the realtime control window in gap-free mode was used to record current traces of 10-30 sec duration at holding potentials ranging from −100 to +100 mV, in 25 mV increments. The bath reference electrode was a silver chloride wire with a 3 M KCl agar bridge. Data was filtered at 500 Hz, digitized at 2 kHz by Clampex, and analyzed offline by Fetchan and Pstat or by Clampfit subroutines of PCLAMP. Holding potentials in on-cell patch experiments were expressed as −Vp, the negative of the pipette potential.

KCa3.1 = molecular target: T1, KCa3.1 (Homo sapiens, UniProt O15554)
T1 construct: KCa3.1 activity stimulated in intact human AA cells by 1 μM A23187; endogenous in cells; host or cells: intact human AA red blood cells

[2] = tested on: LPA-induced cation conductance in human SS red cells; test: On-cell patch clamp of LPA-induced cation conductance
Text: as §5, §6
Deoxygenation-activated flickering cation conductance observed in human SS cells contrasted with the prolonged channel openings produced by 5 μM LPA (FIG. 10A). In SS cells, LPA increased NPo […], from 0.04±0.03 to 0.82±0.18 (n=8, p<0.001; Na methanesulfonate in bath and pipette, −Vp=−50 mV; FIG. 10B). LPA-induced cation conductance was 96% inhibited by 100 uM dipyridamole in the pipette, and 97% inhibited by 1 μM GsMTx-4 in the pipette (both n=4).

[3] = tested on: SAD sickle mouse red cells; test: Fluo-3 fluorescence measurement of [Ca2+]i during deoxygenation, SAD cells
Description: Blood was withdrawn by cardiac puncture or from the tail vein of C57B16/J wildtype mice, SAD sickle mice, or Berkeley sickle mice into heparinized syringes by IACUC-approved protocols of Beth Israel Deaconess Medical Center. Buffy coat-depleted cells were washed 5 times in standard mouse red cell wash solution containing (in mM) 172 choline Cl, 10 sucrose, 10 Na Tris-MOPS, pH 7.4, resuspended in storage solution, and kept at 4° C. until use.
as §3
Measurement of relative changes in [Ca^2+]i by Fluo-3 fluorescence emission was previously validated in intact human (Yang et al. 2000, Blood, 95(7):2421-2425; Andrews et al. 2002, Blood, 199(9):3392-3399) and mouse red cells (Akel et al. 2007, Amer. J. Physiol., 292(5):C1759-1767). Attached red cells were loaded in the dark with the fluorescent non-ratiometric Ca^2+ indicator Fluo-3-AM (10 μM, Molecular Probes, Eugene, Oreg.) at 37° C. for 1 hr, then washed and incubated 15 min further to allow de-esterification of intracellular dye. The open perfusion chamber containing dye-loaded cells was mounted on an Olympus IMT-2 inverted epifluorescence microscope equipped with CoolSNAP CCD camera (Photometrics, Tucson, Ariz.). Fluo-3 in cells imaged through a 60× objective was excited by mercury-xenon illumination passed through a 495ds20 filter. Fluorescence emission (proportional to [Ca^2+]i) from a 535ds20 bandpass filter was collected from all attached single cells within the arbitrarily selected visual field. Emission image acquisition was controlled by a Metafluor digital imaging system (Universal Imaging, West Chester, Pa.).
as §4

T1 sequence (O15554 whole entry): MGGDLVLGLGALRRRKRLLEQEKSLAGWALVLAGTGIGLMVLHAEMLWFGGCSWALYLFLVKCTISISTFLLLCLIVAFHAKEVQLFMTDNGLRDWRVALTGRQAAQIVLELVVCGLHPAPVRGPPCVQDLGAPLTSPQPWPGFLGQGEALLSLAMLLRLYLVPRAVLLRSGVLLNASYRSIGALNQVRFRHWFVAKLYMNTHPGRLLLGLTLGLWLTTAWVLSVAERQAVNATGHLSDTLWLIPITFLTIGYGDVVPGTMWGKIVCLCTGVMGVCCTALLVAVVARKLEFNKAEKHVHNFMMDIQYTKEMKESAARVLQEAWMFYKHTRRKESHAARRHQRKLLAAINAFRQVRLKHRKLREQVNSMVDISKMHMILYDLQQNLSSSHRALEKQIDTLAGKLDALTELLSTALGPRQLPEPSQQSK

[C-]#[O+] [CO, carbon monoxide]
effect on [Ca2+]i elevation by deoxygenation (human SS red cells): blocked; also recorded: inhibited
NPo upon deoxygenation ([1]; CO-pretreated cells, n=4): 0.0625±0.0375
Normoxic NPo ([1]; CO-pretreated cells, n=4): 0.0377±0.0375
effect on activation of conductance upon deoxygenation ([1]; prior CO exposure of SS cells): prevented

O=S(=O)(O)c1cc(N=C=S)ccc1C=Cc1ccc(N=C=S)cc1S(=O)(=O)O [DIDS, 4,4′-diisothiocyanatostilbene-2,2′-disulfonic acid]
effect on deoxygenation-induced activation of cation conductance ([1]; 100 μM in the pipette): prevented; also recorded: blocked
NPo after deoxygenation (hypoxic) ([1]; 100 μM in the pipette, n=4): 0.001±0.001
Normoxic NPo ([1]; 100 μM in the pipette, n=4): 0.002±0.002

Clc1ccccc1C(c1ccccc1)(c1ccccc1)n1ccnc1 [clotrimazole, reference compound]
effect on A23187-stimulated cell shrinkage (KCa3.1): completely inhibited

OCCN(CCO)c1nc(N2CCCCC2)c2nc(N(CCO)CCO)nc(N3CCCCC3)c2n1 [dipyridamole]
effect on deoxygenation-induced activation of cation conductance ([1]; 100 μM in the pipette): prevented
NPo after deoxygenation (hypoxic) ([1]; 100 μM in the pipette, n=4): 0.004±0.002
Normoxic NPo ([1]; 100 μM in the pipette, n=4): 0.00
effect on LPA-induced increase in NPo ([2]; 100 μM in the pipette): prevented
inhibition at 100 µM ([2]; Homo sapiens, 100 uM in the pipette, 5 μM LPA, n=4): 96%

[Na+].[Na+].[Na+].[O]=[V]([O-])([O-])[O-] [vanadate, Na vanadate]
effect on deoxygenation-induced [Ca2+]i elevation ([3]; 50 μM in bath, acute deoxygenation): enhanced; also recorded: further elevated
time to plateau [Ca2+]i after deoxygenation ([3]; 50 μM, continued presence): < 2 min
[Ca2+]i-dependent Fluo-3 emission increase ([3]; 50 μM, 5 min normoxic preincubation of SAD cells): 12.8±1.8%
late [Ca2+]i relative to plateau ([3]; 50 μM, after ~4 min longer at plateau): twice the previous plateau value
